Data taken from US11541055B2, “Inhibitors of human immunodeficiency virus replication” (ViiV Healthcare UK (No. 5) LIMITED, priority 2018, dated 2023).

What was measured:
[1] = Compound cytotoxicity, XTT-based colorimetric assay; type: cell-based; settings: human; uninfected MT2 cells, day 4, XTT
Summary of the method: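 Run under the antiviral-assay protocol but without virus. Viability was read on day 4 and CC50 values were derived from the readout.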

[2] = tested on: recombinant NL4-3 virus (Renilla luciferase) in MT-2 cells; assay: HIV cell culture assay (antiviral activity, luciferase readout); type: cell-based; settings: Renilla, NL43
Summary of the method: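 MT-2 cells were infected with recombinant NL4-3 virus carrying Renilla luciferase in place of part of nef. Cells were cultured 4–5 days with serially diluted compound, and luciferase was measured with a live-cell substrate. EC50 was calculated from the median effect equation.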

Row | SMILES | CC50 at 4 days [1] [nM] | EC50 [2] [nM]
1 | Cc1nccc(-c2ccc3c(=O)n(-c4ccc(Cl)c5c(NS(C)(=O)=O)nn(CC(F)F)c45)c([C@H](Cc4cc(F)cc(F)c4)NC(=O)Cn4nc(C(F)F)c5c4C(F)(F)[C@@H]4C[C@H]54)nc3c2)n1 (atropisomer, axis not shown) [Example 121, N-[(1S)-1-{3-[4-chloro-1-(2,2-difluoroethyl)-3-methanesulfonamido-1H-indazol-7-yl]-7-(2-methylpyrimidin-4-yl)-4-oxo-3,4-dihydroquinazolin-2-yl}-2-(3,5-difluorophenyl)ethyl]-2-[(2S,4R)-9-(difluoromethyl)-5,5-difluoro-7,8-diazatricyclo[4.3.0.0^2,^4]nona-1(6),8-dien-7-yl]acetamide] | > 500 | 0.067
2 | Cn1nc(NS(C)(=O)=O)c2c(Cl)ccc(-n3c([C@H](Cc4cc(F)cc(F)c4)NC(=O)Cn4nc(C(F)F)c5c4C(F)(F)[C@@H]4C[C@H]54)nc4cc(-c5ccccc5OC(F)F)ccc4c3=O)c21 (atropisomer, axis not shown; (P)) [Example 25, N—((S)-1-((3P)-3-(4-chloro-1-methyl-3-(methylsulfonamido)-1H-indazol-7-yl)-7-(2-(difluoromethoxy)phenyl)-4-oxo-3,4-dihydroquinazolin-2-yl)-2-(3,5-difluorophenyl)ethyl)-2-((3bS,4aR)-3-(difluoromethyl)-5,5-difluoro-3b,4,4a,5-tetrahydro-1H-cyclopropa[3,4]cyclopenta[1,2-c]pyrazol-1-yl)acetamide] | > 500 | 0.85
3 | Cc1cc(C)c(C(F)(F)F)c(-c2ccc3c(=O)n(-c4ccc(Cl)c5c(NS(C)(=O)=O)nn(C)c45)c([C@H](Cc4cc(F)cc(F)c4)NC(=O)Cn4nc(C(F)F)c5c4C(F)(F)[C@@H]4C[C@H]54)nc3c2)n1 (atropisomer, axis not shown; (P)) [Example 52, N—((S)-1-((3P)-3-(4-chloro-1-methyl-3-(methylsulfonamido)-1H-indazol-7-yl)-7-(4,6-dimethyl-3-(trifluoromethyl)pyridin-2-yl)-4-oxo-3,4-dihydroquinazolin-2-yl)-2-(3,5-difluorophenyl)ethyl)-2-((3bS,4aR)-3-(difluoromethyl)-5,5-difluoro-3b,4,4a,5-tetrahydro-1H-cyclopropa[3,4]cyclopenta[1,2-c]pyrazol-1-yl)acetamide] | > 500 | 0.48
4 | Cn1nc(NS(C)(=O)=O)c2c(Cl)ccc(-n3c([C@H](Cc4cc(F)cc(F)c4)NC(=O)Cn4nc(C(F)F)c5c4C(F)(F)[C@@H]4C[C@H]54)nc4cc(-c5ccnnc5)ccc4c3=O)c21 (atropisomer, axis not shown; (P)) [Example 31, N—((S)-1-((3P)-3-(4-chloro-1-methyl-3-(methylsulfonamido)-1H-indazol-7-yl)-4-oxo-7-(pyridazin-4-yl)-3,4-dihydroquinazolin-2-yl)-2-(3,5-difluorophenyl)ethyl)-2-((3bS,4aR)-3-(difluoromethyl)-5,5-difluoro-3b,4,4a,5-tetrahydro-1H-cyclopropa[3,4]cyclopenta[1,2-c]pyrazol-1-yl)acetamide] | > 500 | 0.29
5 | CS(=O)(=O)Nc1nn(CC(F)F)c2c(-n3c([C@H](Cc4cc(F)cc(F)c4)NC(=O)Cn4nc(C(F)F)c5c4C(F)(F)[C@@H]4C[C@H]54)nc4cc(-c5nccc(C(F)F)n5)ccc4c3=O)ccc(Cl)c12 (atropisomer, axis not shown) [Example 132] | > 500 | 0.06
6 | CCc1ccnc(-c2ccc3c(=O)n(-c4ccc(Cl)c5c(NS(C)(=O)=O)nn(C)c45)c([C@H](Cc4cc(F)cc(F)c4)NC(=O)Cn4nc(C(F)F)c5c4C(F)(F)[C@@H]4C[C@H]54)nc3c2)n1 (atropisomer, axis not shown; (P)) [Example 43, N—((S)-1-((3P)-3-(4-chloro-1-methyl-3-(methylsulfonamido)-1H-indazol-7-yl)-7-(4-ethylpyrimidin-2-yl)-4-oxo-3,4-dihydroquinazolin-2-yl)-2-(3,5-difluorophenyl)ethyl)-2-((3bS,4aR)-3-(difluoromethyl)-5,5-difluoro-3b,4,4a,5-tetrahydro-1H-cyclopropa[3,4]cyclopenta[1,2-c]pyrazol-1-yl)acetamide] | > 500 | 0.058
7 | Cc1ncc(C)c(-c2ccc3c(=O)n(-c4ccc(Cl)c5c(NS(C)(=O)=O)nn(C)c45)c([C@H](Cc4cc(F)cc(F)c4)NC(=O)Cn4nc(C(F)F)c5c4C(F)(F)[C@@H]4C[C@H]54)nc3c2)n1 (atropisomer, axis not shown; (P)) [Example 77, N—((S)-1-((3P)-3-(4-chloro-1-methyl-3-(methylsulfonamido)-1H-indazol-7-yl)-7-(2,5-dimethylpyrimidin-4-yl)-4-oxo-3,4-dihydroquinazolin-2-yl)-2-(3,5-difluorophenyl)ethyl)-2-((3bS,4aR)-3-(difluoromethyl)-5,5-difluoro-3b,4,4a,5-tetrahydro-1H-cyclopropa[3,4]cyclopenta[1,2-c]pyrazol-1-yl)acetamide] | > 500 | 0.071
8 | COc1ccc(-c2ccc3c(=O)n(-c4ccc(Cl)c5c(NS(C)(=O)=O)nn(C)c45)c([C@H](Cc4cc(F)cc(F)c4)NC(=O)Cn4nc(C(F)F)c5c4C(F)(F)[C@@H]4C[C@H]54)nc3c2)c(C)n1 (atropisomer, axis not shown; (P)) [Example 5, N—((S)-1-((3P)-3-(4-chloro-1-methyl-3-(methylsulfonamido)-1H-indazol-7-yl)-7-(6-methoxy-2-methylpyridin-3-yl)-4-oxo-3,4-dihydroquinazolin-2-yl)-2-(3,5-difluorophenyl)ethyl)-2-((3bS,4aR)-3-(difluoromethyl)-5,5-difluoro-3b,4,4a,5-tetrahydro-1H-cyclopropa[3,4]cyclopenta[1,2-c]pyrazol-1-yl)acetamide] | > 500 | 0.94
9 | Cc1cc(C)nc(-c2ccc3c(=O)n(-c4ccc(Cl)c5c(NS(C)(=O)=O)nn(CC(F)F)c45)c([C@H](Cc4cc(F)cc(F)c4)NC(=O)Cn4nc(C(F)F)c5c4C(F)(F)[C@@H]4C[C@H]54)nc3c2)c1 (atropisomer, axis not shown) [Example 137, N-[(1S)-1-{3-[4-chloro-1-(2,2-difluoroethyl)-3-methanesulfonamido-1H-indazol-7-yl]-7-(4,6-dimethylpyridin-2-yl)-4-oxo-3,4-dihydroquinazolin-2-yl}-2-(3,5-difluorophenyl)ethyl]-2-[(2S,4R)-9-(difluoromethyl)-5,5-difluoro-7,8-diazatricyclo[4.3.0.0^2,^4]nona-1(6),8-dien-7-yl]acetamide] | > 500 | 0.2
10 | Cc1ccnnc1-c1ccc2c(=O)n(-c3ccc(Cl)c4c(NS(C)(=O)=O)nn(C)c34)c([C@H](Cc3cc(F)cc(F)c3)NC(=O)Cn3nc(C(F)F)c4c3C(F)(F)[C@@H]3C[C@H]43)nc2c1 (atropisomer, axis not shown; (P)) [Example 51, N—((S)-1-((3P)-3-(4-chloro-1-methyl-3-(methylsulfonamido)-1H-indazol-7-yl)-7-(4-methylpyridazin-3-yl)-4-oxo-3,4-dihydroquinazolin-2-yl)-2-(3,5-difluorophenyl)ethyl)-2-((3bS,4aR)-3-(difluoromethyl)-5,5-difluoro-3b,4,4a,5-tetrahydro-1H-cyclopropa[3,4]cyclopenta[1,2-c]pyrazol-1-yl)acetamide] | > 500 | 0.14
11 | Cc1ncc(-c2ccc3c(=O)n(-c4ccc(Cl)c5c(NS(C)(=O)=O)nn(CC(F)(F)F)c45)c([C@H](Cc4cc(F)cc(F)c4)NC(=O)Cn4nc(C(F)F)c5c4C(F)(F)[C@@H]4C[C@H]54)nc3c2)s1 (atropisomer, axis not shown) [Example 114] | > 500 | 0.15
12 | Cc1nccc(-c2ccc3c(=O)n(-c4ccc(Cl)c5c(NS(=O)(=O)C6CC6)nn(CC(F)F)c45)c([C@H](Cc4cc(F)cc(F)c4)NC(=O)Cn4nc(C(F)F)c5c4C(F)(F)[C@@H]4C[C@H]54)nc3c2)n1 (atropisomer, axis not shown; (P)) [Example 81, N—((S)-1-((3P)-3-(4-chloro-3-(cyclopropanesulfonamido)-1-(2,2-difluoroethyl)-1H-indazol-7-yl)-7-(2-methylpyrimidin-4-yl)-4-oxo-3,4-dihydroquinazolin-2-yl)-2-(3,5-difluorophenyl)ethyl)-2-((3bS,4aR)-3-(difluoromethyl)-5,5-difluoro-3b,4,4a,5-tetrahydro-1H-cyclopropa[3,4]cyclopenta[1,2-c]pyrazol-1-yl)acetamide] | > 500 | 0.092
13 | O=C(Cn1nc(C(F)F)c2c1C(F)(F)[C@@H]1C[C@H]21)N[C@@H](Cc1cc(F)cc(F)c1)c1nc2cc(-c3cccnn3)ccc2c(=O)n1-c1ccc(Cl)c2c(NS(=O)(=O)C3CC3)nn(CC(F)F)c12 (atropisomer, axis not shown; (P)) [Example 89, N—((S)-1-((3P)-3-(4-chloro-3-(cyclopropanesulfonamido)-1-(2,2-difluoroethyl)-1H-indazol-7-yl)-4-oxo-7-(pyridazin-3-yl)-3,4-dihydroquinazolin-2-yl)-2-(3,5-difluorophenyl)ethyl)-2-((3bS,4aR)-3-(difluoromethyl)-5,5-difluoro-3b,4,4a,5-tetrahydro-1H-cyclopropa[3,4]cyclopenta[1,2-c]pyrazol-1-yl)acetamide] | > 500 | 0.075
